Assay results from ChEMBL document CHEMBL4371002 (J Med Chem, 2018).

Tests used:
[1] = target: Tyrosine-protein phosphatase non-receptor type 1 (Homo sapiens, UniProt P18031); format: cell-based, Sf9
[2] = target: T1, 3-oxo-5-alpha-steroid 4-dehydrogenase 2 (Homo sapiens, UniProt P31213)
T1 sequence (P31213 whole entry): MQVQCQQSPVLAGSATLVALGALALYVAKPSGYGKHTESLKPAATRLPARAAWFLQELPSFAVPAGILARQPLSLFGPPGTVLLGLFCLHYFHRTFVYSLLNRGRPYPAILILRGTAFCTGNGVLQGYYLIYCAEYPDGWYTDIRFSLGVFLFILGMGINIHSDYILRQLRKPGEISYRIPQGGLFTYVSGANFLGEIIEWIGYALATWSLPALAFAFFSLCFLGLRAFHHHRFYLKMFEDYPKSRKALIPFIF

[3] = target: T2, 3-oxo-5-alpha-steroid 4-dehydrogenase 1 (Rattus norvegicus, UniProt P24008)
T2 sequence (P24008 whole entry): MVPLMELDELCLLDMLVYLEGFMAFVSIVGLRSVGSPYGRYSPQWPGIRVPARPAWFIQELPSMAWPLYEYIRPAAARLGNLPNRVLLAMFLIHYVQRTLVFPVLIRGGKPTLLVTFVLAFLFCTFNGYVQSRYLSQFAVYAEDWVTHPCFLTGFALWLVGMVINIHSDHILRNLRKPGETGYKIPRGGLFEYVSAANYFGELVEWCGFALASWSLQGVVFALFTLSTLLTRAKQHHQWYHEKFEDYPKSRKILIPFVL

[4] = target: T3, 3-oxo-5-alpha-steroid 4-dehydrogenase 1 (Homo sapiens, UniProt P18405); format: cell-based, HEK293
T3 sequence (P18405 whole entry): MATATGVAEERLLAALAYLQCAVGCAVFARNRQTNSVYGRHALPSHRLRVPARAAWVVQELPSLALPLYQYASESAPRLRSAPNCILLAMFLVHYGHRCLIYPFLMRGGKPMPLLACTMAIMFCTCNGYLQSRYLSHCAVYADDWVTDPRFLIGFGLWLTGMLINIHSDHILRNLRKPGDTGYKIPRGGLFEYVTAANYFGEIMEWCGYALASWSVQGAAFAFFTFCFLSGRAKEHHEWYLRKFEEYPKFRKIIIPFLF

[5] = target: T4, 3-oxo-5-alpha-steroid 4-dehydrogenase 2 (Rattus norvegicus, UniProt P31214)
T4 sequence (P31214 whole entry): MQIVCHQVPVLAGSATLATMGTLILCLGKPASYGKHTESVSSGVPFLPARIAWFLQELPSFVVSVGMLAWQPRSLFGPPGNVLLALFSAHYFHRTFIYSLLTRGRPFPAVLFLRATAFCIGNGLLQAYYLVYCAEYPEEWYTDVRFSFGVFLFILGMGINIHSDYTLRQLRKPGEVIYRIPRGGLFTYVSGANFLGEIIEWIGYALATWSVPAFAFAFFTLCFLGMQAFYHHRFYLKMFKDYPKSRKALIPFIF

[6] = target: T3, 3-oxo-5-alpha-steroid 4-dehydrogenase 1
[7] = target: T1, 3-oxo-5-alpha-steroid 4-dehydrogenase 2; remark: listed apart in the source

Chain of Tyrosine-protein phosphatase non-receptor type 1 (P18031 whole entry): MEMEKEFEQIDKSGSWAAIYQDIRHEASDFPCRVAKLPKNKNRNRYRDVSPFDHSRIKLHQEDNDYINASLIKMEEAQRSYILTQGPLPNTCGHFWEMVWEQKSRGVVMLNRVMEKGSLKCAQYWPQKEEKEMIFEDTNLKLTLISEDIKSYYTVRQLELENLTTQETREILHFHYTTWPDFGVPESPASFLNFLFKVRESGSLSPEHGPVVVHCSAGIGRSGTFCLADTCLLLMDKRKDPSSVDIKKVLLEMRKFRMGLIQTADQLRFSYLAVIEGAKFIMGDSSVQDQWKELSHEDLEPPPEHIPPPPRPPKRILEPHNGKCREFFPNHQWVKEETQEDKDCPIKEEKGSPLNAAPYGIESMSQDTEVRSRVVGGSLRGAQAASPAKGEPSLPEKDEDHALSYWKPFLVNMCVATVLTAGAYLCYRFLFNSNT

SMILES | EC50 [1] [µM] | IC50 [2] [µM] | IC50 [3] [µM] | IC50 [4] [µM] | IC50 [5] [µM] | IC50 [6] [µM] | IC50 [7] [µM]
O=C(c1ccccc1)C(Cc1ccc(C(F)(F)P(=O)(O)O)c(Br)c1)c1ccccc1 (configuration not stated) | 1.2 | – | – | – | – | – | –
CC(C)(C)NC(=O)[C@H]1CC[C@H]2[C@@H]3CC[C@H]4NC(=O)C=C[C@]4(C)[C@H]3CC[C@]12C [FINASTERIDE] | – | 0.058 | 0.03 | 0.65 | 0.032 | 0.15 to 0.47 | 0.00018 to 0.0113
